Results on 2 molecules are retold here after publication PMC11251166 (Nature Communications, 2024).

For assay [1], the target named is T1, MavL40-404 (Legionella pneumophila, UniProt Q5ZSJ1).
T1 construct: gene lpg2526

The target of assay [2] is T2, LnaB (Legionella pneumophila, UniProt Q5ZSJ0).
T2 construct: gene lpg2527
The assay can be described thus: biochemical.

T2 sequence (Q5ZSJ0 1-558 limits assumed): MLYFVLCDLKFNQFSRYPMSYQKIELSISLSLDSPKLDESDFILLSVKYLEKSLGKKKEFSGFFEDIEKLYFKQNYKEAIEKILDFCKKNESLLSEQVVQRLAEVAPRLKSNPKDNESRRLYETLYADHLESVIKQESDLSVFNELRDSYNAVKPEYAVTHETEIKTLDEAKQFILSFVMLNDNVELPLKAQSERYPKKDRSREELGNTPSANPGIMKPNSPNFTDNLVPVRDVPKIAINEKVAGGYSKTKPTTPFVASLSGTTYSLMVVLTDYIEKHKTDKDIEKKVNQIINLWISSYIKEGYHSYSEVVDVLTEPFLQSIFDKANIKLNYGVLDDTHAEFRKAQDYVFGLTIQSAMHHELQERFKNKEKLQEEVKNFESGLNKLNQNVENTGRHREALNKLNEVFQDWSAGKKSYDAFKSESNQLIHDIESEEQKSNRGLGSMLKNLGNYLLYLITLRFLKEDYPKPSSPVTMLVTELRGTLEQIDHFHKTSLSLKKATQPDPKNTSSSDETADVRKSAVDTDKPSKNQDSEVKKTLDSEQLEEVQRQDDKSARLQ
T1 sequence (Q5ZSJ1 40-404 limits assumed): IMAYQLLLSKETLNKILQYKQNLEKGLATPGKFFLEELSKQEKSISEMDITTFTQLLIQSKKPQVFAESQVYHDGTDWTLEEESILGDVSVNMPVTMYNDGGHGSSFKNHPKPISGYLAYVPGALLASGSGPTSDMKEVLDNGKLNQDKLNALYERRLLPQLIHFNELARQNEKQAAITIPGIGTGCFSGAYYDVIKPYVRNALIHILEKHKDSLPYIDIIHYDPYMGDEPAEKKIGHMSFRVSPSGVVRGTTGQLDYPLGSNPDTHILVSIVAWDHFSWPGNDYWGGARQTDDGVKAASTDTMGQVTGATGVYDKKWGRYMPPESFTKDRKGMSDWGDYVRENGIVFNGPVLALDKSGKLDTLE

As for `Nc1ncnc2c1ncn2[C@@H]1O[C@H](COP(=O)(O)OP(=O)(O)OC[C@H]2OC(O)[C@H](O)[C@@H]2O)[C@@H](O)[C@H]1O` (some centres unmarked) [ADPR], the Kd (in general, a measure of binding affinity in units of concentration) in assay [1] came out at 25 ± 3.24 µM.
Regarding `Nc1ncnc2c1ncn2[C@@H]1O[C@H](COP(=O)(O)OP(=O)(O)OP(=O)(O)O)[C@@H](O)[C@H]1O` [ATP], in assay [2], binding was characterised by a dissociation constant (Kd) of 15.4 ± 4.85 µM.
